Measured values reported in US20220056040A1, “NOVEL 3-(2-BROMO-4-ALKYNYL-6-ALKOXYPHENYL)-3-PYRROLIN-2-ONES AND THEIR USE AS HERBICIDES” (Bayer Aktiengesellschaft, priority 2019, published 2022).

Columns and labels:
Format in all cases: in vivo
[1] = test system: Echinochloa crus-galli; assay: Post-emergence herbicidal effect; settings: 80 g/ha, post-emergence at one-leaf stage, visual score after about 3 weeks
Protocol: (§1) Seeds of monocotyledonous and dicotyledonous weed and crop plants are laid out in sandyloam soil in wood-fiber pots, covered with soil and cultivated in a greenhouse under good growth conditions. 2 to 3 weeks after sowing, the test plants are treated at the one-leaf stage. The compounds of the invention, formulated in the form of wettable powders (WP) or as emulsion concentrates (EC), are then sprayed onto the green parts of the plants as aqueous suspension or emulsion at a water application rate equating to 600 to 800 l/ha with addition of 0.2% wetting agent. After the test plants have been left to stand in the greenhouse under optimal growth conditions for about 3 weeks, the action of the preparations is assessed visually in comparison to untreated controls (herbicidal action in percent (%): 100% activity=the plants have died, 0% activity=like control plants).

[2] = test system: Setaria viridis; assay: Post-emergence herbicidal effect; settings: 80 g/ha, post-emergence at one-leaf stage, visual score after about 3 weeks
Protocol: as §1

[3] = test system: Hordeum murinum; assay: Post-emergence herbicidal effect; settings: 80 g/ha, post-emergence at one-leaf stage, visual score after about 3 weeks
Protocol: as §1

[4] = test system: Lolium rigidum; assay: Post-emergence herbicidal effect; settings: 80 g/ha, post-emergence at one-leaf stage, visual score after about 3 weeks
Protocol: as §1

[5] = test system: Alopecurus myosuroides; assay: Post-emergence herbicidal effect; settings: 80 g/ha, post-emergence at one-leaf stage, visual score after about 3 weeks
Protocol: as §1

[6] = test system: Digitaria sanguinalis; assay: Post-emergence herbicidal effect; settings: 80 g/ha, post-emergence at one-leaf stage, visual score after about 3 weeks
Protocol: as §1

[7] = test system: Echinochloa crus-galli; assay: Pre-emergence herbicidal effect; settings: 80 g/ha, visual score after 3 weeks vs untreated controls
Excerpt: (§2) Seeds of monocotyledonous and dicotyledonous weed plants and crop plants are laid out in sandy loam soil in wood-fiber pots and covered with soil. The compounds of the invention, formulated in the form of wettable powders (WP) or as emulsion concentrates (EC), are then applied to the surface of the covering soil as aqueous suspension or emulsion at a water application rate equating to 600 to 800 L/ha with addition of 0.2% wetting agent. After the treatment, the pots are placed in a greenhouse and kept under good growth conditions for the trial plants. The damage to the test plants is scored visually after a test period of 3 weeks by comparison with untreated controls (herbicidal activity in percent (%): 100% activity=the plants have died, 0% activity=like control plants).

[8] = test system: Setaria viridis; assay: Pre-emergence herbicidal effect; settings: 80 g/ha, visual score after 3 weeks vs untreated controls
Excerpt: as §2

[9] = test system: Lolium rigidum; assay: Pre-emergence herbicidal effect; settings: 80 g/ha, visual score after 3 weeks vs untreated controls
Excerpt: as §2

[10] = test system: Alopecurus myosuroides; assay: Pre-emergence herbicidal effect; settings: 80 g/ha, visual score after 3 weeks vs untreated controls
Excerpt: as §2

[11] = test system: Digitaria sanguinalis; assay: Pre-emergence herbicidal effect; settings: 80 g/ha, visual score after 3 weeks vs untreated controls
Excerpt: as §2

[12] = test system: Avena fatua; assay: Pre-emergence herbicidal effect; settings: 80 g/ha, visual score after 3 weeks vs untreated controls
Excerpt: as §2

Compound | Post-emergence action against ECHCG (herbicidal action in percent) [1] [%] | Post-emergence action against SETVI (herbicidal action in percent) [2] [%] | Post-emergence action against HORMU (herbicidal action in percent) [3] [%] | Post-emergence action against LOLRI (herbicidal action in percent) [4] [%] | Post-emergence action against ALOMY (herbicidal action in percent) [5] [%] | Post-emergence action against DIGSA (herbicidal action in percent) [6] [%] | Pre-emergence action ECHCG (herbicidal activity in percent) [7] [%] | Pre-emergence action SETVI (herbicidal activity in percent) [8] [%] | Pre-emergence action LOLRI (herbicidal activity in percent) [9] [%] | Pre-emergence action ALOMY (herbicidal activity in percent) [10] [%] | Pre-emergence action DIGSA (herbicidal activity in percent) [11] [%] | Pre-emergence action AVEFA (herbicidal activity in percent) [12] [%]
CC#Cc1cc(Br)c(C2=C(O)C3(CCOCC3)NC2=O)c(OC)c1 [Example 1.1.01, 3-[2-Bromo-6-methoxy-4-(prop-1-yn-1-yl)phenyl]-4-hydroxy-8-oxa-1-azaspiro[4.5]dec-3-en-2-one] | 100 | 100 | 100 | 100 | 100 | 100 | 100 | 100 | 100 | 90 | 100 | 100
CC#Cc1cc(Br)c(C2=C(OC(=O)OC)C3(CCOCC3)NC2=O)c(OC)c1 [Example 1.1.02, 3-[2-Bromo-6-methoxy-4-(prop-1-yn-1-yl)phenyl]-2-oxo-8-oxa-1-azaspiro[4.5]dec-3-en-4-yl methyl carbonate] | 100 | 100 | – | 100 | 100 | 100 | 80 | 100 | 100 | 90 | 100 | 80
CC#Cc1cc(Br)c(C2=C(OC(=O)OCC)C3(CCOCC3)NC2=O)c(OC)c1 [Example 1.1.03] | 100 | 100 | – | 100 | 80 | 100 | – | – | – | – | – | –
CC#Cc1cc(Br)c(C2=C(OC(=O)C(C)C)C3(CCOCC3)NC2=O)c(OC)c1 [Example 1.1.04] | – | – | – | – | – | 100 | – | – | – | – | – | –
CC#Cc1cc(Br)c(C2=C(OC(=O)OCC)C3(CCC4(CC3)OCCO4)NC2=O)c(OC)c1 [Example 1.2.01] | 100 | 100 | 100 | 100 | 100 | – | 100 | 100 | 100 | 90 | 100 | 100
CC#Cc1cc(Br)c(C2=C(O)C3(CCC4(CC3)OCCO4)NC2=O)c(OC)c1 [Example 1.2.03] | 100 | 100 | 100 | 100 | 90 | 100 | 100 | 100 | 100 | 100 | 100 | 100
C=CCOC1CCC2(CC1)NC(=O)C(c1c(Br)cc(C#CC)cc1OC)=C2OC(=O)OC (stereo not drawn) [Example 1.3.02] | 90 | 100 | – | 80 | 100 | 100 | 100 | 100 | 100 | 100 | 100 | 90
